From PubChem BioAssay AID1508591 come the findings set out here.

Structures are written as SMILES.

What is called half-life is how long it takes for the measured level to halve.

The conditions of the series: rat; liver microsomes; pH 7.4; 15.0 min; 1.0 µM. A general note: Liver microsomes are a subcellular fraction often used to study metabolism.
For the compound `CCC(CC)C(=O)NC[C@@H]1C=C(C)[C@H](Cc2nc3c(C)cccc3[nH]2)C[C@H]1C(C)C`, the half-life is 1.12 min. As for `CS(=O)(=O)CCNCc1ccc(-c2ccc3ncnc(Nc4ccc(OCc5cccc(F)c5)c(Cl)c4)c3c2)o1`, the figure is 7.65 min; as for `CCn1c(SCc2ccc(C#N)cc2)nnc1-c1cccc(Cl)c1`, 3 min. As for `O=S(=O)(Nc1nccs1)c1ccc(NCc2cccc(F)c2O)cc1`, the figure is 16 min; as for `Cc1ccc(S(=O)(=O)Nc2cc(Br)ccc2C(=O)Nc2nc(-c3ccccc3)cs2)cc1`, 9.6 min; as for `CCOC(=O)C1CCN(c2ncc(-c3ccc4c(c3)OCCCO4)s2)CC1`, 2.37 min.

Regarding `CO[C@@H]1/C=C\O[C@@]2(C)Oc3c(C)c(O)c4c(c3C2=O)C(=N[C@H]2CC[C@H](O)O[C@@H]2C)C=C(NC(=O)/C(C)=C\C(=O)[C@@H]2C[C@@H]2[C@@H](O)[C@H](C)[C@@H](O)[C@H](C)[C@H](OC(C)=O)[C@@H]1C)C4=O`, the half-life is 9.93 min. As for `Cc1ccccc1C(=O)N1CCc2cc(-c3nc(NC(=O)c4ccc5c(c4)OCO5)sc3C)ccc21`, the figure is > 30 min; as for `Cc1ccc(-c2cc(C(=O)Nc3ccccn3)c3ccccc3n2)cc1`, 23.8 min; as for `Brc1ccc(-c2csc(N3CCCCC3)n2)cc1`, 3.45 min.

The compound `Cc1ccc(NS(=O)(=O)c2cccc(C(=O)Nc3nc(-c4ccccc4)cs3)c2)cc1` gave a half-life of 6.7 min. The same measure for `Cn1cnc(-c2nccc3c(=O)[nH]c(OCCCC(F)(F)F)nc23)c1`: 16.5 min. As to `Cc1ccnc(NC(=S)N2CCC(Nc3cccc(C(F)(F)F)c3)CC2)c1`, the half-life turned out to be 20 min. The same measure for `Cc1ccc(S(=O)(=O)Nc2cc(F)c(F)cc2C(=O)Nc2nc(-c3ccccc3)cs2)cc1`: 4.6 min; for `Cc1ccc(C(=O)N2CCc3cc(-c4nc(NC(=O)Cc5ccc6c(c5)OCO6)sc4C)ccc32)cc1`: 6 min. The same measure for `Clc1ccc(Nc2nc(-c3ccncc3)nc3ccccc23)cc1Cl`: 15 min; for `Nc1nc2c(s1)C(c1ccccc1OCc1ccccc1Cl)CC(=O)N2` (stereo not given): 6.28 min.

`CCOC(=O)c1cc(C)sc1NC(=O)c1ccc(Cl)s1` had a half-life of 5.49 min. `Nc1nccc2c1ncn2[C@@H]1C=C(CO)[C@@H](O)[C@H]1O`: the half-life was > 30 min. As for `Clc1ccccc1-c1nc(NCc2ccc(-c3cccnc3)cc2)c2ccccc2n1`, the figure is 6.99 min. The same measure for `Cc1nc2c(-c3ccccc3)cnn2c(N)c1-c1ccccc1`: > 30 min; for `Cc1ccnc(NC(=S)N2CCN(c3ccccc3C(F)(F)F)CC2)c1`: 2 min.

Turning to `CCCS(=O)(=O)c1nc(NC2CC2)cc(-c2ccc3c(ccn3C3CC(C)(C)NC(C)(C)C3)c2)n1`, the half-life is > 30 min.

`COc1cccc(CNC(=O)c2ccc(N3CCCC3)c(NC(=O)Nc3ccccc3F)c2)c1` had a half-life of 1.7 min. The same measure for `CCC(CC)(NC(=O)C(C)C)C(=O)N[C@@H](CCCN=C(N)N)C(=O)NC1(C(=O)NC(c2ccc(F)cc2)c2ccc(F)cc2)CCCC1`: > 30 min; for `COc1ccc(C2(C(=O)N3CCC(n4cc(-c5nc(C)no5)nn4)CC3)CC2)cc1`: 7.38 min; for `Cc1noc(C)c1-c1ccc2ncnc(NCc3ccc4[nH]ccc4c3)c2c1`: 3.2 min. As for `COc1ccccc1CNc1ccc(S(=O)(=O)Nc2nccs2)cc1`, the figure is 2.8 min. As for `Cc1cnc(-c2ccccc2C(F)F)nc1NCc1ccc(-n2ccnn2)cc1`, the figure is 21 min. Take `COc1ccccc1N1CCN(CCN(C(=O)c2ccc(F)cc2)c2ccccn2)CC1`: the half-life was 2.02 min.

The compound `COc1cc(-c2nc(Cn3nnc(C(=O)Nc4cc(C)cc(C)c4)c3C)c(C)o2)cc(OC)c1OC` yielded a half-life of 20.6 min.

Regarding `FC(F)(F)c1ccc(CNc2nc(-c3ccccc3C(F)(F)F)nc3ccccc23)cc1`, the half-life is > 30 min.

The compound `c1ccc(C2=Nn3c(nnc3-c3ccncc3)SC2)cc1` came in with a half-life of 9.1 min. The same measure for `Cc1ccc(S(=O)(=O)Nc2cnccc2C(=O)Nc2nc(-c3ccc(Cl)cc3)cs2)cc1`: > 30 min; for `COc1ccc(-c2ccc3nc(-c4cc(F)cc(F)c4F)oc3c2)c(OC)c1OC`: > 30 min; for `COc1cc(NS(=O)(=O)c2ccc(C)cc2)c(C(=O)Nc2nc(-c3ccccc3)cs2)cc1OC`: 9 min.

Compound `CCCN1C(CC(C)C)=NS(=O)(=O)c2cc(NC(=O)c3cccs3)ccc21` had a half-life of 4.56 min. The compound `Cc1c(Cl)cccc1NC(=O)CNS(=O)(=O)c1cccs1` returned a half-life of 5.47 min. The same measure for `Cn1c(=O)c2c(-c3ccc(Br)cc3)n(CCc3ccccc3)cc2n(C)c1=O`: 1.23 min; for `Cc1cccc(-n2cnc3cc(C(=O)N4CCCCC4)ccc32)c1`: 5.85 min. The same measure for `NC(=O)C1CCN(c2ncc(Br)s2)CC1`: > 30 min; for `Cc1ccc(S(=O)(=O)Nc2cccc(C(=O)Nc3nc(-c4ccccc4)cs3)c2)cc1`: 16 min; for `Cc1cc(C)nc(NC(=S)N2CCN(c3ccc(F)cc3F)CC2)c1`: > 30 min. `Cc1nc2nc(NC(=O)c3ccc(C(C)(C)C)cc3)[nH]n2c(=O)c1Cl` yielded a half-life of 21 min. As for `O=c1c(-c2cccs2)ccc2n1C[C@H]1C[C@@H]2CN(C2CCOCC2)C1`, the figure is 14.6 min; as for `CCOc1ccc(CN2C(=O)c3ccccc3Sc3ccc(C(=O)NC4CCC(C)CC4)cc32)cc1` (stereo not given), 3.52 min. The same measure for `O=C1CCCC2=C1C(c1ccccc1Br)N=C(Nc1nc3ccccc3o1)N2` (stereo not given): 9.6 min; for `O=C1CCCCc2cc(O)c(O)cc21`: > 30 min. As to `NC(=O)C1CCN(c2nc(-c3cccc(N)c3)cs2)CC1`, the half-life was > 30 min.

With `COc1ccc(C2CC(=O)Nc3nc(N)sc32)cc1OC` (stereo not given), the half-life was > 30 min. Compound `O=C1Cc2cc(C(=O)c3ccco3)ccc2N1` registered a half-life of 20 min.

`CCC(CC)c1cc([C@H]2CN3CC[C@H]2C[C@@H]3CNC(C)=O)nc(-c2ccncc2)n1` gave a half-life of 10.9 min. This half-life lies about 1.8-fold lower than the previous one. The same measure for `Fc1ccc(Nc2ccnc(-c3ccncc3)n2)cc1F`: 13 min; for `O=C(Nc1ccccc1)C1CCN(c2ncc(-c3ccc4c(c3)OCCCO4)s2)CC1`: 1.44 min; for `Cc1cnc(-c2ccccc2C(C)C)nc1NCC1CCN(c2cccnc2)CC1`: 3.9 min. Consider `O=C(Nc1ccc(S(=O)(=O)Nc2nccs2)cc1)c1ccnc2ccccc12`, for which the half-life was > 30 min. The same measure for `COc1ccc(-n2nc(C3CCN([S+](=O)([O-])c4cccc(C(F)(F)F)c4)CC3)[nH]c2=O)cc1`: 15 min; for `CC(C)N(CCCNC(=O)Nc1ccc(C(C)(C)C)cc1)C[C@H]1O[C@@H](n2cc(Br)c3c(N)ncnc32)[C@H](O)[C@H]1O`: 2.47 min. As for `COCC(C)Nc1ncnc2c1cnn2-c1ccc(C)c(C)c1` (stereo not given), the figure is 23.7 min; as for `Nc1c(-c2ccccc2)cc[nH]c1=O`, > 30 min.

On to `O=C1CCCC2=C1C1(CCCC1)N=C(Nc1nc3cc(Br)ccc3o1)N2`, for which the half-life amounted to 4.9 min. The same measure for `O=C1Nc2ccc(-c3cccc(C(F)(F)F)c3)cc2C(=O)N2CCN(C(=O)COc3ccccc3)C[C@H]12`: 5.73 min. Take `O=[S+]([O-])(Nc1ccc2ccccc2c1)c1ccc(NCc2ccc(Cl)cc2O)cc1`: the half-life is 21 min. Turning to `CCOc1ccccc1C(=O)Nc1ccccc1C(=O)Nc1cccc(C(F)(F)F)c1`, the half-life was found to be 22.8 min. The same measure for `O=C(Nc1ncc(Cc2ccc(C(F)(F)F)cc2)s1)c1ccc(-c2ccccc2)o1`: > 30 min. The same measure for `COc1cc(C(=O)NC2CCCc3c2[nH]c2c(Cl)cccc32)cc(OC)c1OC` (stereo not given): 8.45 min; for `CC(O)(C#Cc1ccc2c(c1)N(c1nc(N)ncc1Cl)CC2)c1nccs1` (stereo not given): 7.75 min. The same measure for `COc1cccc(NCCC2(c3ccccc3)CC(C)(C)OC(C)(C)C2)c1`: 1.6 min; for `Clc1ccccc1Nc1nc(-c2ccncc2)nc2ccccc12`: 11 min; for `COc1cccc(CNc2ccc(S(=O)(=O)Nc3nccs3)cc2)c1OC`: 11 min. On to `FC(F)(F)c1ccccc1-c1nc(NCc2ccc(-c3cccnc3)cc2)c2ccccc2n1`, for which the half-life turned out to be 9.18 min.

Take `O=S(=O)(Nc1ccc(-c2ccccc2)cc1)c1ccc(NCc2ccc(Br)cc2O)cc1`: the half-life came out at 21 min.

Regarding `CC(=O)N1CCc2cc(S(=O)(=O)NCCC3=CCCCC3)ccc21`, the half-life was found to be 1.3 min. Compared with the last compound, the half-life is about 16-fold lower. On to `CCOC(=O)N1CCN(C(=O)Cn2sc3nc(C)cc(C)c3c2=O)CC1`, for which the half-life is > 30 min.

As to `CC(C)c1ccc2oc3nc(N)c(C(=O)O)cc3c(=O)c2c1`, the half-life is > 30 min. The same measure for `CC(C)CNC(=O)c1cn2cc(-c3ccccc3)sc2n1`: > 30 min; for `CC(Nc1ccc([S+](=O)([O-])Nc2nccs2)cc1)c1ccccc1` (stereo not given): 13 min. The same measure for `COc1ccc(Cn2c(C(=O)O)c(CNCc3cccc(OC)c3)c3ccc(C)cc32)cc1`: 11.6 min. The same measure for `CNc1oc(-c2cccc(-c3ccccc3)c2)nc1C#N`: 12 min.

On to `CC1=C(C(=O)NC2CCCCC2)C(c2ccccc2Br)N=C(Nc2nc3ccccc3o2)N1` (stereo not given), for which the half-life was found to be 7.4 min. The same measure for `Cc1ccc(S(=O)(=O)n2cc(C(=O)Nc3nc(-c4ccccc4)cs3)c3ccccc32)cc1`: 23 min; for `N#Cc1cnccc1-c1nc(Nc2ccc(F)c(F)c2)c2ccccc2n1`: 6.4 min. The same measure for `O=C1Nc2ccccc2/C1=C\c1ccc(O)cc1`: 14 min; for `O=C(Nc1cccc(C(F)(F)F)c1)Nc1cc(S(=O)(=O)NC2CC2)ccc1-c1ccsc1`: 5.65 min. As for `Nc1c(-c2ccccc2)cnc2c(-c3ccccc3)cnn12`, the figure is > 30 min; as for `COc1cc2c(Oc3ccc(-c4cnc(Nc5ccc(F)cc5)n(C)c4=O)cc3F)ccnc2cc1OCCCN1CCOCC1`, > 30 min.

The compound `O=[S+]([O-])(Nc1ccc(-c2ccccc2)cc1)c1ccc(NCc2ccc(Cl)cc2O)cc1` came in with a half-life of 18 min. The same measure for `Cc1cccc(N2CCN(C(=O)Cn3ncc4c3-c3ccccc3OC4)CC2)c1C`: 2.76 min; for `CCC(C)N(C)C(=O)c1cc2ccccc2c(-c2ccccc2Cl)n1` (stereo not given): 3.84 min; for `N#Cc1nc(-c2cccc3ccccc23)oc1NC1COC1`: 28 min.
